Reference: article PMC8718112, “Functional independence of endogenous μ- and δ-opioid receptors co-expressed in cholinergic interneurons” (eLife, 2021)

Target: T1, δ-opioid receptor (DOR) (Mus musculus, UniProt P32300)
T1 construct: gene Oprd1; endogenous receptor on cholinergic interneurons in mouse brain slices
Experiment: cell-attached recording of firing inhibition reversed by SDM25N; internalization of labeled receptors
Type: cell-based

T1 sequence (P32300 whole entry): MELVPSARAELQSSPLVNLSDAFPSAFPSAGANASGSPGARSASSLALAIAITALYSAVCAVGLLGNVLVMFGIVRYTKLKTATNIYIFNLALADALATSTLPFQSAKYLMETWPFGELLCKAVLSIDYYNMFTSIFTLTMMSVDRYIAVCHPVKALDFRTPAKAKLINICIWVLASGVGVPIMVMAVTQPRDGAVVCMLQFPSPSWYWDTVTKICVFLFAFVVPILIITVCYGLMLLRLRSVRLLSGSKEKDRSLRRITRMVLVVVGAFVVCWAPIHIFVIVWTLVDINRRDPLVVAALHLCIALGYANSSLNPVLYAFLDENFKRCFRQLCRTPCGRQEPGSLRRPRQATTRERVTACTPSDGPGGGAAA

SMILES: CC(C)[C@H](NC(=O)[C@H](CCC(=O)O)NC(=O)[C@H](Cc1ccccc1)NC(=O)[C@@H](C)NC(=O)[C@@H](N)Cc1ccc(O)cc1)C(=O)N[C@H](C(=O)NCC(N)=O)C(C)C [deltorphin II]
- inhibition at 1 µM: 96.6 ± 2.7%
